Reference: patent US10752593B2, “Compounds for use as therapeutically active substances in the treatment of retinal diseases” (ENDOGENA THERAPEUTICS, INC., priority 2018, dated 2020)

Test system: retinal precursor cells
Test: Sphere passaging and high-throughput drug screening: proliferation of retinal precursor cells within one week
Format: cell-based, mammalian
Details: for increase of cell proliferation within one week: increase over control, retinal precursor cells; for Cell proliferation within one week [%]: retinal precursor cells grown one week with compound in 0.1% DMSO, control without compound = 100
Method: Kynurenic Acid (0.2 mg/mL), trypsin (1.33 mg/mL), and hyaluronidase (0.67 mg/mL) were weighed out and dissolved in high magnesium/low calcium artificial cerebral spinal fluid (aCSF) at 37° C. Fibroblast growth factor 2 (FGF2; 10 ng/mL) and heparin (2 μg/mL) were added to 100 mL of serum-free media (SFM). Ovomucoid trypsin inhibitor (1 mg/mL) was dissolved in warm SFM and sterile filtered ([…]).
A dissecting microscope, cold light source, and sterile surgical instruments were set up inside of a sterile biological safety cabinet (BSC). Mammalian eyes were enucleated and placed in a petri dish containing cold, sterile aCSF. Under the dissecting microscope, hair, connective tissue, and the dorsal and ventral oblique muscles were cleared from the scleral/corneal border with two sets of forceps. Next, curved or angled micro-dissecting scissors were used to cleave any remaining extraocular muscle tissue, the optic nerve, and cut the eyeball into symmetrical halves; beginning and finishing the cut from the hole left by the optic nerve. Using two sets of forceps to grasp the cornea, the two eye halves were peeled apart. The lens, optic nerve, and vitreous were separated from the eye shells and the eye shells were transferred into a new petri dish (also containing cold, sterile aCSF). To isolate the ciliary epithelium (CE), eye shells were oriented with the cornea on the right and retinal pigmented epithelium (RPE) on the left. A pair of straight forceps were used to pin down the eye shell on the RPE side while a scalpel blade was inserted between the CE and the iris, using pressure to slice the iris/cornea side off from the rest of the shell. Next, the scalpel was run along the border between the CE and the RPE to obtain the CE isolated as a thin strip of tissue. The CE strips were then transferred to a 35 mm dish containing 2 mL of dispase solution (Sigma; T1005) and incubated for 10 minutes at 37° C. Next, the strips were transferred from dispase into a 35 mm dish containing 2 mL of sterile filtered kynurenic acid, trypsin and hyaluronidase solution and incubated at 37° C. for 10 minutes. After incubation, the dish was returned to the dissecting scope, and the CE strips were pinned down with straight, non-serrated forceps, while non-serrated curved forceps were used to scrape the CE off from the underlying sclera. The bare scleral strips were then discarded, such that only the CE cells remained in the enzyme solution. Using a fire-polished, cotton-plugged glass pipette, the cells and enzyme solution were transferred to a 15 mL tube and triturated approximately 45 times to break apart the tissue. The 15 mL tube/cell suspension was centrifuged for 5 minutes at 1500 rpm. The supernatant was gently aspirated from the resulting pellet using a fire-polished, cotton-plugged glass pipette and 2 mL of trypsin inhibitor solution was added to the pellet. Using a small borehole, fire-polished, cotton-plugged glass pipette, the sample was triturated approximately 45 times until it was a single-cell suspension. The 15 mL tube/cell suspension was centrifuged for 5 minutes at 1500 rpm. The supernatant was gently aspirated from the resulting pellet and 1-2 mL of SFM with FGF2 and heparin (plating media) was added. The cells and media were mixed to ensure a uniform cell suspension and a 10 uL sample was taken and cell density was determined. The cells were then seeded and cultured at 10c/μL in culture-treated plates or flasks. After one week, roughly 1 in 500 cells proliferated to form free-floating, clonal spheres greater than 80 μm in diameter.
Human-derived spheres were passaged using the kynurenic acid, trypsin, hyaluronidase enzyme solution with the addition of collagenase I (0.5 mg/mL), collagenase II (0.5 mg/mL) and elastase (0.1 mg/mL). Mouse-derived spheres were passaged using hyaluronidase (0.67 mg/mL), collagenase I (0.5 mg/mL), and collagenase II (0.5 mg/mL) dissolved in Accustase solution (Sigma; SCR005). […]

[1] = results table after the methods

Compound: COc1cc(NC(=O)Cc2ccccc2Cl)ccc1-c1ccncc1 [Compound E0027, 2-(2-chlorophenyl)-N-(3-methoxy-4-(pyridin-4-yl)phenyl)acetamide]
- increase of cell proliferation within one week: 48%
- Cell proliferation within one week [%] [1]: 148%

Compound: COc1cccc(CC(=O)Nc2ccc(-c3cnco3)c(Cl)c2)c1 [Compound E0146, N-(3-chloro-4-(oxazol-5-yl)phenyl)-2-(3-methoxyphenyl)acetamide]
- increase of cell proliferation within one week: 103%
- Cell proliferation within one week [%] [1]: 203%
- Cell proliferation within one week [%] (concentration not given): 203%

Compound: O=C(Cc1ccccc1C(F)(F)F)Nc1ccc(-c2cnco2)c(Cl)c1 [Compound E0147, N-(3-chloro-4-(oxazol-5-yl)phenyl)-2-(2-(trifluoromethyl)phenyl)acetamide]
- increase of cell proliferation within one week: 42%
- Cell proliferation within one week [%] [1]: 142%
- Cell proliferation within one week [%] (concentration not given): 142%

Compound: O=C(Cc1cccc(Br)c1)Nc1ccc(-c2cnco2)c(Cl)c1 [Compound E0148, 2-(3-bromophenyl)-N-(3-chloro-4-(oxazol-5-yl)phenyl)acetamide]
- increase of cell proliferation within one week: 43%
- Cell proliferation within one week [%] [1]: 143%
- Cell proliferation within one week [%] (concentration not given): 143%

Compound: O=C(Cc1ccc(F)cc1F)Nc1ccc(-c2cnco2)c(Cl)c1 [Compound E0149, N-(3-chloro-4-(oxazol-5-yl)phenyl)-2-(2,4-difluorophenyl)acetamide]
- increase of cell proliferation within one week: 57%
- Cell proliferation within one week [%] [1]: 157%
- Cell proliferation within one week [%] (concentration not given): 157%

Compound: O=C(Cc1cc(F)ccc1Cl)Nc1ccc(-c2cnco2)c(Cl)c1 [Compound E1017, N-(3-chloro-4-(oxazol-5-yl)phenyl)-2-(2-chloro-5-fluorophenyl)acetamide]
- Cell proliferation within one week [%] [1]: 121%
- Cell proliferation within one week [%] (concentration not given): 121%

Compound: O=C(Cc1cccc(C(F)(F)F)c1)Nc1ccc(-c2cnco2)c(Cl)c1 [Compound E1018, N-(3-chloro-4-(oxazol-5-yl)phenyl)-2-(3-(trifluoromethyl)phenyl)acetamide]
- Cell proliferation within one week [%] [1]: 134%
- Cell proliferation within one week [%] (concentration not given): 134%

Compound: O=C(Cc1ccc(Cl)cc1)Nc1ccc(-c2cnco2)c(Cl)c1 [Compound E1019, N-(3-chloro-4-(oxazol-5-yl)phenyl)-2-(4-chlorophenyl)acetamide]
- Cell proliferation within one week [%] [1]: 133%
- Cell proliferation within one week [%] (concentration not given): 133%

Compound: O=C(Cc1ccccc1OC(F)F)Nc1ccc(-c2cnco2)c(Cl)c1 [Compound E1020, N-(3-chloro-4-(oxazol-5-yl)phenyl)-2-(2-(difluoromethoxy)phenyl)acetamide]
- Cell proliferation within one week [%] [1]: 135%
- Cell proliferation within one week [%] (concentration not given): 135%

Compound: O=C(Cc1ccccc1)Nc1ccc(-c2cnco2)c(Cl)c1 [Compound E1021, N-(3-chloro-4-(oxazol-5-yl)phenyl)-2-phenylacetamide]
- increase of cell proliferation within one week: 49%
- Cell proliferation within one week [%] [1]: 149%
- Cell proliferation within one week [%] (concentration not given): 149%

Compound: O=C(Cc1ccccc1Cl)Nc1ccc(-c2cnco2)c(Cl)c1 [Compound E1022, N-(3-chloro-4-(oxazol-5-yl)phenyl)-2-(2-chlorophenyl)acetamide]
- increase of cell proliferation within one week: 58%
- Cell proliferation within one week [%] [1]: 158%
- Cell proliferation within one week [%] (concentration not given): 158%

Compound: COc1ccccc1CC(=O)Nc1ccc(-c2cnco2)c(Cl)c1 [Compound E1024, N-(3-chloro-4-(oxazol-5-yl)phenyl)-2-(2-methoxyphenyl)acetamide]
- Cell proliferation within one week [%] [1]: 128%
- Cell proliferation within one week [%] (concentration not given): 128%

Compound: COc1ccccc1CC(=O)Nc1ccc(-c2cnco2)c(F)c1 [Compound E1025, N-(3-fluoro-4-(oxazol-5-yl)phenyl)-2-(2-methoxyphenyl)acetamide]
- Cell proliferation within one week [%] [1]: 106%
- Cell proliferation within one week [%] (concentration not given): 106%

Compound: O=C(Cc1cccc(OC(F)F)c1)Nc1ccc(-c2cnco2)c(Cl)c1 [Compound E1026, N-(3-chloro-4-(oxazol-5-yl)phenyl)-2-(3-(difluoromethoxy)phenyl)acetamide]
- Cell proliferation within one week [%] [1]: 122%
- Cell proliferation within one week [%] (concentration not given): 122%

Compound: O=C(Cc1cccc(OC(F)F)c1)Nc1ccc(-c2cnco2)c(F)c1 [Compound E1027, 2-(3-(difluoromethoxy)phenyl)-N-(3-fluoro-4-(oxazol-5-yl)phenyl)acetamide]
- Cell proliferation within one week [%] [1]: 120%
- Cell proliferation within one week [%] (concentration not given): 120%

Compound: O=C(Cc1ccccc1OC(F)F)Nc1ccc(-c2cnco2)c(F)c1 [Compound E1028, 2-(2-(difluoromethoxy)phenyl)-N-(3-fluoro-4-(oxazol-5-yl)phenyl)acetamide]
- Cell proliferation within one week [%] [1]: 119%
- Cell proliferation within one week [%] (concentration not given): 119%

Compound: O=C(Cc1cc(F)ccc1Cl)Nc1ccc(-c2cnco2)c(F)c1 [Compound E1030, 2-(2-chloro-5-fluorophenyl)-N-(3-fluoro-4-(oxazol-5-yl)phenyl)acetamide]
- Cell proliferation within one week [%] [1]: 133%
- Cell proliferation within one week [%] (concentration not given): 133%

Compound: O=C(Cc1ccccc1)Nc1ccc(-c2cnco2)c(F)c1 [Compound E1031, N-(3-fluoro-4-(oxazol-5-yl)phenyl)-2-phenylacetamide]
- Cell proliferation within one week [%] [1]: 123%
- Cell proliferation within one week [%] (concentration not given): 123%

Compound: O=C(Cc1ccccc1Cl)Nc1ccc(-c2cnco2)c(F)c1 [Compound E1032, 2-(2-chlorophenyl)-N-(3-fluoro-4-(oxazol-5-yl)phenyl)acetamide]
- Cell proliferation within one week [%] [1]: 137%
- Cell proliferation within one week [%] (concentration not given): 137%

Compound: O=C(Cc1ccc(Cl)cc1)Nc1ccc(-c2cnco2)c(F)c1 [Compound E1039, 2-(4-chlorophenyl)-N-(3-fluoro-4-(oxazol-5-yl)phenyl)acetamide]
- Cell proliferation within one week [%] [1]: 107%
- Cell proliferation within one week [%] (concentration not given): 107%

Compound: COc1cccc(CC(=O)Nc2ccc(-c3cnco3)c(F)c2)c1 [Compound E1042, N-(3-fluoro-4-(oxazol-5-yl)phenyl)-2-(3-methoxyphenyl)acetamide]
- Cell proliferation within one week [%] [1]: 127%
- Cell proliferation within one week [%] (concentration not given): 127%

Compound: O=C(Cc1ccc(F)cc1F)Nc1ccc(-c2cnco2)c(F)c1 [Compound E1045, 2-(2,4-difluorophenyl)-N-(3-fluoro-4-(oxazol-5-yl)phenyl)acetamide]
- Cell proliferation within one week [%] [1]: 140%
- Cell proliferation within one week [%] (concentration not given): 140%

Compound: O=C(Cc1cccc(C(F)(F)F)c1)Nc1ccc(-c2cnco2)c(F)c1 [Compound E1048, N-(3-fluoro-4-(oxazol-5-yl)phenyl)-2-(3-(trifluoromethyl)phenyl)acetamide]
- Cell proliferation within one week [%] [1]: 105%
- Cell proliferation within one week [%] (concentration not given): 105%

Compound: O=C(Cc1ccccc1C(F)(F)F)Nc1ccc(-c2cnco2)c(F)c1 [Compound E1051, N-(3-fluoro-4-(oxazol-5-yl)phenyl)-2-(2-(trifluoromethyl)phenyl)acetamide]
- Cell proliferation within one week [%] [1]: 118%
- Cell proliferation within one week [%] (concentration not given): 118%

Compound: O=C(Cc1ccccc1Cl)Nc1ccc(-c2ccncc2)cc1 [Compound E1060, 2-(2-chlorophenyl)-N-(4-(pyridin-4-yl)phenyl)acetamide]
- increase of cell proliferation within one week: 44%
- Cell proliferation within one week [%] [1]: 144%

Compound: COc1cc(NC(=O)Cc2cc(F)ccc2Cl)ccc1-c1ccncc1 [Compound E1062, 2-(2-chloro-5-fluorophenyl)-N-(3-methoxy-4-(pyridin-4-yl)phenyl)acetamide]
- Cell proliferation within one week [%] [1]: 134%
